{
  "source": "patent US7576128B2",
  "about": "(priority 2004, dated 2009)",
  "key": {"[1]": {"biological_target": "T1, hAR (human androgen receptor) (Homo sapiens, UniProt P10275)", "T1 construct": "made in house; host or cells: baculovirus/Sf9 insect cells", "T1 sequence (P10275 1-920)": "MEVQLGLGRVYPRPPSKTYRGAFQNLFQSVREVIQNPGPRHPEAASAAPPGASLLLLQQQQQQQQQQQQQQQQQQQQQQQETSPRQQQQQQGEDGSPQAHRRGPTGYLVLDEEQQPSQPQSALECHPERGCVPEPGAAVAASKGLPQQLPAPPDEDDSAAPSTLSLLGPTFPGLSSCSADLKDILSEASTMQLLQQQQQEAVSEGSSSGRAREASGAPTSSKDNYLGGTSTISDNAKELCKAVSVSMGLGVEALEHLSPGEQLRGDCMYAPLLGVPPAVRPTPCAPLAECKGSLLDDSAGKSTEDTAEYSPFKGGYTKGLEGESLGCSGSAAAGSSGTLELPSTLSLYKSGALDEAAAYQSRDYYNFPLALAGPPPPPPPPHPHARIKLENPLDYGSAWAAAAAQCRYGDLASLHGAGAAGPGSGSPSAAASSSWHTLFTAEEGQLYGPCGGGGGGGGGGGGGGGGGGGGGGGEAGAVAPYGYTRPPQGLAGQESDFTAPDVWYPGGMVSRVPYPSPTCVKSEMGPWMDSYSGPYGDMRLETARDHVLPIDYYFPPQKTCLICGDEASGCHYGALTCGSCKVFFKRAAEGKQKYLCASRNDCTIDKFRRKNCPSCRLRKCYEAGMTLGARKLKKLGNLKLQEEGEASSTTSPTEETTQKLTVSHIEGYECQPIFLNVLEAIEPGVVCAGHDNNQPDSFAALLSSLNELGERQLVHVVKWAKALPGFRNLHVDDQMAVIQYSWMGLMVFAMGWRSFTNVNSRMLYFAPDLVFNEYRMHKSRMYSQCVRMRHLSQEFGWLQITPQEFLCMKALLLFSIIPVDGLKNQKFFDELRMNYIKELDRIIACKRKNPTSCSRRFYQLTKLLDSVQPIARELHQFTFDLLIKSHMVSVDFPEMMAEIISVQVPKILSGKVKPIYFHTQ", "assay": "Competitive binding analysis on baculovirus/Sf9 generated hAR extracts with 3H-DHT tracer", "procedure": "The description below describes how the assay was carried out.\nCompetitive binding analysis was performed on baculovirus/Sf9 generated hAR extracts in the presence or absence of different concentrations of test agent and a fixed concentration of ^3H-dihydrotestosterone (^3H-DHT) as tracer. This binding assay method is a modification of a protocol previously described (Liao S., et. al. J. Steroid Biochem. 20:11-17 1984). Briefly, progressively decreasing concentrations of compounds are incubated in the presence of hAR extract (Chang et al. P.N.A.S. Vol. 89, pp. 5546-5950,1992), hydroxylapatite, and 1 nM ^3 H-DHT for one hour at 4° C. Subsequently, the binding reactions are washed three times to completely remove excess unbound ^3 H-DHT. hAR bound ^3H-DHT levels are determined in the presence of compounds (=i.e competitive binding) and compared to levels bound when no competitor is present (=i.e. maximum binding). Compound binding affinity to the hAR is expressed as the concentration of compound at which one half of the maximum binding is inhibited."}, "androgen receptor": {"biological_target": "T2, androgen receptor (Homo sapiens, UniProt P10275)", "T2 sequence (P10275 1-920 Q868H)": "T1 sequence (P10275 1-920) with Q868H", "assay": "AR antagonist cell assay, MDA-MB453-MMTV clone 54-19 luciferase reporter", "type": "cell-based", "procedure": "The compounds ability to antagonize the effects of androgen on the androgen receptor were determined in a whole cell assay as described immediately below.\nThis cell line is a stable transfected cell line with MDA-MB453 cell background (a human breast tumor cell line expressing androgen receptor). A MMTV minimal promoter containing ARE was first cloned in front of a firefly luciferase reporter gene. Then the cascade was cloned into transfection vector pUV120puro. Electroporation method was used for transfecting MDA-MB-453 cell. Puromycin resistant stable cell line was selected.\n• 1. Cells are maintained in culture medium, splitting cells when they reach 80-90% confluence • 2. To test compounds, 10,000 cells/well are plated to opaque 96 cell culture plate in 100 ul/well plating medium, culture for overnight at 37° C. in cell culture incubator • 3. Carefully remove plating medium, then add 80 ul/well of pre-warmed assay medium, add 10 ul/well testing compound (final concentration at) 1000 nM, 200 nM, 40 nM, 8 nM, 1.6 nM, and 0.32 nM), incubate at 37° C. for 30 minutes • 4. Add 10 ul/well freshly prepared DHT (final concentration at 100 pM) to each well, incubate at 37° C. for 17 hr (overnight) • 5.\nThe results are reported as the mean of multiple tests as described below (the numbers of tests are indicated in the footnote). N.D. denotes that the compound was not tested."}, "[2]": {"conditions": "hAR extract, 1 nM 3H-DHT, one hour at 4° C., mean of multiple tests, read-out: AR Binding IC50"}, "[3]": {"conditions": "MDA-MB453-MMTV clone 54-19, 100 pM DHT, 17 hr; mean of multiple tests; read-out: AR Cell IC50"}, "[4]": {"conditions": "read-out: AR Cell IC50; MDA-MB453-MMTV clone 54-19, 100 pM DHT, 17 hr; mean of multiple tests"}},
  "note": "Where a chain is given by its changes, count along the chain named. Where two headings read alike, the source gives them in different places.",
  "data": [
    {"compound": "C=CCCCCC(O)COc1ccc(C#N)c(C(F)(F)F)c1", "note": "(stereo not shown) [Example 6, 4-(2-Hydroxy-oct-7-enyl-oxy)-2-tri-fluoromethyl-benzonitrile]", "values": [
      {"measurement": "IC50", "setting": "[1]; [2]", "result": 0.415, "unit": "µM"},
      {"measurement": "IC50", "setting": "androgen receptor; [3]", "result": 0.662, "unit": "µM"}
    ]},
    {"compound": "N#Cc1ccc(OCCCCO)cc1C(F)(F)F", "note": "[Example 18, 4-(4-Hydroxy-butoxy)-2-tri-fluoromethyl-benzonitrile]", "values": [
      {"measurement": "IC50", "setting": "[1]; read-out: AR Binding IC50", "result": 0.074, "unit": "µM"},
      {"measurement": "IC50", "setting": "androgen receptor; [3]", "result": 0.398, "unit": "µM"}
    ]},
    {"compound": "N#Cc1ccc(OCCCCO)cc1Cl", "note": "[Example 30, 2-Chloro-4-(4-hydroxy-butoxy)-benzonitrile]", "values": [
      {"measurement": "IC50", "setting": "[1]; read-out: AR Binding IC50", "result": 0.099, "unit": "µM"}
    ]},
    {"compound": "CCCC(CCCO)Oc1ccc(C#N)c(C(F)(F)F)c1", "note": "(stereo not shown) [Example 21, 4-(4-Hydroxy-1-pro-pyl-butoxy)-2-tri-fluoromethyl-benzonitrile]", "values": [
      {"measurement": "IC50", "setting": "[1]; read-out: AR Binding IC50", "result": 0.808, "unit": "µM"}
    ]},
    {"compound": "CCCC(O)C(CC)COc1ccc(C#N)c(C(F)(F)F)c1", "note": "(stereo not shown) [Example 14, 4-(2-Ethyl-3-Hy-droxy-hexyl-oxy)-2-tri-fluoromethyl-benzonitrile]", "values": [
      {"measurement": "IC50", "setting": "[1]; [2]", "result": 0.26, "unit": "µM"},
      {"measurement": "IC50", "setting": "androgen receptor; [3]", "result": 0.794, "unit": "µM"}
    ]},
    {"compound": "CC(CCO)CCOc1ccc(C#N)c(C(F)(F)F)c1", "note": "(stereo not shown) [Example 26, 4-(5-Hydroxy-3-meth-yl-pentyloxy)-2-tri-fluoromethyl-benzonitrile]", "values": [
      {"measurement": "IC50", "setting": "[1]; read-out: AR Binding IC50", "result": 0.777, "unit": "µM"}
    ]},
    {"compound": "C[C@H](O)CCOc1ccc(C#N)c(C(F)(F)F)c1", "note": "[Example 8, (3S)-4-(3-Hydroxy-butoxy)-2-tri-fluoromethyl-benzonitrile]", "values": [
      {"measurement": "IC50", "setting": "[1]; [2]", "result": 0.213, "unit": "µM"},
      {"measurement": "IC50", "setting": "androgen receptor; [3]", "result": "> 1", "unit": "µM"}
    ]},
    {"compound": "CC(O)CCCOc1ccc(C#N)c(C(F)(F)F)c1", "note": "(stereo not shown) [Example 19]", "values": [
      {"measurement": "IC50", "setting": "[1]; read-out: AR Binding IC50", "result": 0.505, "unit": "µM"},
      {"measurement": "IC50", "setting": "androgen receptor; [4]", "result": "> 1", "unit": "µM"}
    ]},
    {"compound": "CC(O)CCCCOc1ccc(C#N)c(C(F)(F)F)c1", "note": "(stereo not shown) [Example 25, 4-(5-Hydroxy-hexyloxy)-2-tri-fluoromethyl-benzonitrile]", "values": [
      {"measurement": "IC50", "setting": "[1]; [2]", "result": 0.504, "unit": "µM"},
      {"measurement": "IC50", "setting": "androgen receptor; [3]", "result": 0.838, "unit": "µM"}
    ]},
    {"compound": "C[C@H](O)C[C@H](C)Oc1ccc(C#N)c(C(F)(F)F)c1", "note": "[Example 16, (1S,3S)-4-(3-Hy-droxy-1-methyl-bu-toxy)-2-tri-fluoromethyl-benzonitrile]", "values": [
      {"measurement": "IC50", "setting": "[1]", "result": 0.006, "unit": "µM"},
      {"measurement": "IC50", "setting": "androgen receptor; [3]", "result": "> 1", "unit": "µM"}
    ]},
    {"compound": "CC(C)C(O)C(C)(C)COc1ccc(C#N)c(C(F)(F)F)c1", "note": "(stereo not shown) [Example 13, 4-(3-Hydroxy-2,2,4-tri-methyl-pentyloxy)-2-tri-fluoromethyl-benzonitrile]", "values": [
      {"measurement": "IC50", "setting": "[1]; [2]", "result": 0.442, "unit": "µM"}
    ]},
    {"compound": "CC(C)(O)CCOc1ccc(C#N)c(C(F)(F)F)c1", "note": "[Example 12, 4-(3-Hydroxy-3-meth-yl-butoxy)-2-tri-fluoromethyl-benzonitrile]", "values": [
      {"measurement": "IC50", "setting": "[1]; read-out: AR Binding IC50", "result": 0.027, "unit": "µM"},
      {"measurement": "IC50", "setting": "androgen receptor; [3]", "result": 0.269, "unit": "µM"}
    ]},
    {"compound": "CCCCCCC(O)COc1ccc(C#N)c(C(F)(F)F)c1", "note": "(stereo not shown) [Example 5, 4-(2-Hydroxy-octyloxy)-2-tri-fluoromethyl-benzonitrile]", "values": [
      {"measurement": "IC50", "setting": "[1]; read-out: AR Binding IC50", "result": 0.032, "unit": "µM"},
      {"measurement": "IC50", "setting": "androgen receptor; [3]", "result": 0.509, "unit": "µM"}
    ]},
    {"compound": "C=CCC(O)CCOc1ccc(C#N)c(C(F)(F)F)c1", "note": "(stereo not shown) [Example 9, 4-(3-Hydroxy-hex-5-enyl-oxy)-2tri-fluoromethyl-benzonitrile]", "values": [
      {"measurement": "IC50", "setting": "[1]; [2]", "result": 0.268, "unit": "µM"}
    ]},
    {"compound": "CC(C)(CO)COc1ccc(C#N)c(C(F)(F)F)c1", "note": "[Example 11, 4-(3-Hydroxy-2,2-di-methyl-propoxy)-2-tri-fluoromethyl-benzonitrile]", "values": [
      {"measurement": "IC50", "setting": "[1]; [2]", "result": 0.706, "unit": "µM"}
    ]},
    {"compound": "CC(O)CCOc1ccc(C#N)c(C(F)(F)F)c1", "note": "(stereo not shown) [Example 7, 4-(3-Hydroxy-butoxy)-2-tri-fluoromethyl-benzonitrile]", "values": [
      {"measurement": "IC50", "setting": "[1]; [2]", "result": 0.274, "unit": "µM"},
      {"measurement": "IC50", "setting": "androgen receptor; [3]", "result": "> 1", "unit": "µM"}
    ]},
    {"compound": "CC(O)C(C)COc1ccc(C#N)c(C(F)(F)F)c1", "note": "(stereo not shown) [Example 10, 4-(3-Hydroxy-2-meth-yl-butoxy)-2-tri-fluoromethyl-benzonitrile]", "values": [
      {"measurement": "IC50", "setting": "[1]; read-out: AR Binding IC50", "result": 0.07, "unit": "µM"},
      {"measurement": "IC50", "setting": "androgen receptor; [3]", "result": 0.274, "unit": "µM"}
    ]},
    {"compound": "C=CC(CO)Oc1ccc(C#N)c(Cl)c1", "note": "(stereo not shown) [Example 31, 2-Chloro-4-(1-hydroxymethyl-allyloxy)-benzonitrile]", "values": [
      {"measurement": "IC50", "setting": "[1]; [2]", "result": 0.156, "unit": "µM"}
    ]},
    {"compound": "CC(O)CCC(C)Oc1ccc(C#N)c(C(F)(F)F)c1", "note": "(stereo not shown) [Example 22, 4-(4-Hydroxy-1-meth-yl-pentyloxy)-2-tri-fluoromethyl-benzonitrile]", "values": [
      {"measurement": "IC50", "setting": "[1]; [2]", "result": 0.185, "unit": "µM"},
      {"measurement": "IC50", "setting": "androgen receptor; [4]", "result": "> 1", "unit": "µM"}
    ]},
    {"compound": "CC(C)CCCC(O)COc1ccc(C#N)c(C(F)(F)F)c1", "note": "(stereo not shown) [Example 4, 4-(2-Hydroxy-6-methyl-heptyloxy)-2-tri-fluoromethyl-benzonitrile]", "values": [
      {"measurement": "IC50", "setting": "[1]; [2]", "result": 0.442, "unit": "µM"},
      {"measurement": "IC50", "setting": "androgen receptor; [3]", "result": "> 1", "unit": "µM"}
    ]},
    {"compound": "N#Cc1ccc(OCCCO)cc1Cl", "note": "[Example 29, 2-Chloro-4-(3-hydroxy-propoxy)-benzonitrile]", "values": [
      {"measurement": "IC50", "setting": "[1]; read-out: AR Binding IC50", "result": 0.394, "unit": "µM"}
    ]}
  ]
}
